Measurements from patent US10729643B2, “Methods for administration and methods for treating cardiovascular diseases with resiniferatoxin” (priority 2013, dated 2020).
Read-outs that look alike come from different tables or passages of the source.

Assays:
[1] = tested on: cardiac sympathetic afferent input; conditions: anesthetized CHF rats; acute epicardial application; cited from earlier work
[2] = tested on: cardiac sympathetic afferent input; conditions: anesthetized CHF dogs; acute epicardial application; cited from earlier work
[3] = tested on: infarcted heart / CSAR activation; test: Cardiac plasma extravasation (Evans Blue area); type: in vivo, rat; conditions: i.v.
From the text: This example illustrates local anti-inflammatory effects of RTX in the infarcted heart. Myocardial ischemia causes the production and release of several metabolites including bradykinin, prostaglandins and protons that stimulate cardiac sympathetic afferent nerve endings leading to increases in BP, HR and sympathetic nerve activity. As cardiac TRPV1-expressing sympathetic afferents also subserve a “dual sensory-efferent” function and release pro-inflammatory neuropeptides, we hypothesized that plasma extravasation and cardiac neuroinflammation follows myocardial ischemia. […] Inflammation in the infarct area may be due to tissue death whereas in peri-infarct and remote areas may be due to cardiac sympathetic afferent mediated neuroinflammation. This may explain why RTX prevented cardiac inflammation in non-infarct areas to a greater extent than in the infarct area.

Row | Molecule | baseline MAP, HR and RSNA [1] | baseline MAP, HR and RSNA [2] | cardiac plasma extravasation after MI (Evans Blue area) ([3]; Spantide II 0.3 mg/kg, 2 min prior to injection of Evans Blue) | plasma extravasation following CSAR activation by epicardial capsaicin or bradykinin ([3]; acute pretreatment with Spantide II, 0.3 mg/kg)
1 | CCN(CC)CC(=O)Nc1c(C)cccc1C [lidocaine] | decreased | decreased |  | 
2 | Spantide II |  |  | attenuated | largely be abolished
